Test results from patent US20200016130A1, “Methods of Diagnosing and Treating Small Cell Lung Cancer Using Polo-Like Kinase 1 (PLK1) Inhibitors” (Emory University, priority 2017, published 2020).
Entries after “also recorded” stand apart in the source; their conditions may differ. Where two headings read alike, the source gives them in different places.

Key:
[1] = system: panel of SCLC cell lines (DMS53, DMS114, DMS153, H146, H209, H69, H128, H187, H526)
Method: (§2) An agnostic screening approach was employed by evaluating in vitro cytotoxicity of biologically targeted agents that have not been previously evaluated in SCLC clinical trials. […] The cytotoxicity of 10 different targeted agents was determined in a panel of genomically annotated SCLC cell lines by low throughput MTS assay. Inhibitors of the bromodomain, HSP90, CDK2, MEK, PIK3CA and PLK1 were tested in a panel of SCLC cell lines (DMS53, DMS114, DMS153, H146, H209, H69, H128, H187, H526) well characterized for genetic alterations and expression profiles.

[2] = system: TKO-005 PDX of platinum sensitive SCLC; test: Patient derived xenograft (PDX) model of platinum sensitive SCLC (TKO-005); format: in vivo
Excerpt: PDX models generated from SCLC patients enrolled in a recently completed translational phase II clinical trial of arsenic trioxide were employed. […] The activity of rigosertib was compared to that of cisplatin (expected to be active in a PDX from a platinum sensitive tumor) and arsenic trioxide (expected to have no efficacy based on the clinical trial outcome for the patient whose tumor biopsy was used to generate the PDX).

H292 NSCLC cell line = test: In vitro cytotoxicity before and after shRNA knockdown of TP53 in H292; format: cell-based; settings: compared to parental and vector-treated controls
Method: (§1) Whether depletion of endogenous wild type P53 and enforced expression of active P53 mutant would alter cancer cell line sensitivity to PLK1 inhibitor was evaluated. Due to low transfection efficiency in SCLC cell lines, established NSCLC cell line models were relied on to interrogate PLK1 activity following TP53 gene modulation. In vitro cytotoxicity of PLK1 inhibitors were compared before and after shRNA knockdown of TP53 in H292 and A549. In these cell lines with wild type TP53, there was increased sensitivity to PLK1 inhibitors following shRNA knockdown in comparison to parent cells and vector treated controls (FIG. 4). We also evaluated PLK1 inhibitor activity in p53−/− H1299 cells following enforced expression of active mutant forms of TP53. There was reduced sensitivity of the mutant-bearing cell lines compared to parental p53−/− cells (FIG. 5).

[3] = system: panel of SCLC cell lines (DMS53, DMS114, DMS153, H146, H209, H69, H128, H187, H526); test: Agnostic cytotoxicity screening of targeted agents in panel of SCLC cell lines (MTS assay); settings: for IC50 concentration / activity against SCLC cell lines (in words) / In vitro activity versus a priori threshold (submicromolar in vitro cytotoxicity): panel of SCLC cell lines; for In vitro activity versus a priori threshold (submicromolar in vitro cytotoxicity): MTS assay
Method: as §2

A549 NSCLC cell line = test: In vitro cytotoxicity before and after shRNA knockdown of TP53 in A549; format: cell-based; settings: compared to parental and vector-treated controls
Method: as §1

H146 SCLC cell line = test: In vitro cytotoxicity, low throughput MTS assay, H146; format: cell-based; settings: Homo sapiens, NCI-H146, TP53 wild type, read-out: IC50 (nM), cell line sensitivity to volasertib
Method: as §2

DMS114 SCLC cell line = test: In vitro cytotoxicity, low throughput MTS assay, DMS114; format: cell-based; settings: Homo sapiens, DMS-114, TP53 c.637C > T, concurrent hemizygous deletion, read-out: IC50 (nM), cell line sensitivity to volasertib
Method: (§3) The cytotoxicity of 10 different targeted agents was determined in a panel of genomically annotated SCLC cell lines by low throughput MTS assay. Inhibitors of the bromodomain, HSP90, CDK2, MEK, PIK3CA and PLK1 were tested in a panel of SCLC cell lines (DMS53, DMS114, DMS153, H146, H209, H69, H128, H187, H526) well characterized for genetic alterations and expression profiles.

H69 SCLC cell line = test: In vitro cytotoxicity, low throughput MTS assay, H69; format: cell-based; settings: TP53 c.511G > T, concurrent hemizygous deletion, read-out: IC50 (nM), cell line sensitivity to volasertib
Method: as §3

[4] = system: H526 SCLC cell line xenograft; test: Subcutaneous xenograft model of H526 SCLC cell line; format: in vivo, athymic (nu/nu) mice; settings: volasertib 30 mg/kg i.p. weekly; p<0.003
Method: To establish whether the promising in vitro activity of these PLK1 inhibitors translates into antitumor efficacy in vivo. The activity of PLK1 inhibitors were compared to that of approved drugs currently employed in the management of SCLC. The in vivo efficacy of volasertib (30 mg/kg i.p. weekly), cisplatin (3 mg/kg i.p. weekly) and irinotecan (25 mg/kg i.p. weekly) was tested, using a subcutaneous xenograft model of the H526 cell line, the most sensitive cell line from our in vitro screen (FIG. 2). Tumor xenografts were established in 6-week old athymic (nu/nu) mice using H526 cells (1-2×10^7) suspended in serum-free medium mixed with Matrigel™ solution and injected subcutaneously into the flank region of nude mice. Treatment began in groups of tumor-bearing mice (approximately 6 mice per group) matched for body weight and tumor volume when the tumors achieved a volume of approximately 100 mm^3.

DMS53 SCLC cell line = test: In vitro cytotoxicity, low throughput MTS assay, DMS53; format: cell-based; settings: Homo sapiens, DMS-53, TP53 c.722C > T, read-out: IC50 (nM), cell line sensitivity to volasertib
Method: as §2

H187 SCLC cell line = test: In vitro cytotoxicity, low throughput MTS assay, H187; format: cell-based
Method: as §2

DMS153 SCLC cell line = test: In vitro cytotoxicity, low throughput MTS assay, DMS153; format: cell-based; settings: Homo sapiens, DMS-153, TP53 c.463A > C, read-out: IC50 (nM), cell line sensitivity to volasertib
Method: as §2

H209 SCLC cell line = test: In vitro cytotoxicity, low throughput MTS assay, H209; format: cell-based; settings: Homo sapiens, NCI-H209, TP53 c.673-2A > T, read-out: IC50 (nM), cell line sensitivity to volasertib
Method: as §3

Compound	In vitro activity versus a priori threshold (submicromolar in vitro cytotoxicity) [1]	Tumor growth inhibition compared to vehicle [2]	Sensitivity to PLK1 inhibitor after shRNA knockdown of TP53 (H292 NSCLC cell line)	IC50 concentration / activity against SCLC cell lines (in words) [3]	In vitro activity versus a priori threshold (submicromolar in vitro cytotoxicity) [3]	Sensitivity to PLK1 inhibitor after shRNA knockdown of TP53 (A549 NSCLC cell line)	other results
CCNC(=O)c1noc(-c2cc(C(C)C)c(O)cc2O)c1-c1ccc(CN2CCOCC2)cc1 [AUY922]	met the a priori threshold of activity	–	–	–	–	–	–
CCc1cnn2c(NCc3ccc[n+]([O-])c3)cc(N3CCCC[C@H]3CCO)nc12 [SCH727965]	met the a priori threshold of activity	–	–	–	–	–	–
N.N.[Cl][Pt][Cl] [cisplatin]	–	comparable efficacy	–	–	–	–	–
COc1cc(OC)c(/C=C/S(=O)(=O)Cc2ccc(OC)c(NCC(=O)O)c2)c(OC)c1 [rigosertib]	–	significant tumor growth inhibition comparable to cisplatin	sensitized	picomolar IC50 concentration; also recorded: low nanomolar to picomolar activity	met the a priori threshold of activity	sensitized	Tumor weight compared to vehicle [2]: reduced tumor weight
CC[C@@H]1C(=O)N(C)c2cnc(Nc3ccc(C(=O)N[C@H]4CC[C@H](N5CCN(CC6CC6)CC5)CC4)cc3OC)nc2N1C(C)C [volasertib]	–	–	sensitized	picomolar IC50 concentration; also recorded: low nanomolar to picomolar activity	met the a priori threshold of activity	sensitized	IC50 (H146 SCLC cell line): 0.163 nM; IC50 (DMS114 SCLC cell line): 0.092 nM; IC50 (H69 SCLC cell line): 0.018 nM; IC50 ([3]; read-out: mean IC50 concentration, less sensitive SCLC cell lines): 0.25 nM; IC50 ([3]; read-out: mean IC50 concentration, more sensitive SCLC cell lines): 0.03 nM; Tumor growth inhibition relative to control [4]: significant tumor growth inhibition; IC50 (DMS53 SCLC cell line): 0.118 nM; Surviving viable cells (H187 SCLC cell line; BI6727 concentration of 0.01 nM and higher): no surviving viable cells; IC50 (H187 SCLC cell line; Homo sapiens, NCI-H187, TP53 c.722C > G, concurrent hemizygous deletion, read-out: IC50 (nM), cell line sensitivity to volasertib): 0.004 nM; IC50 (DMS153 SCLC cell line): 0.672 nM; IC50 (H209 SCLC cell line): 0.057 nM
